From patent publication US9717718B2, “Anti-inflammatory compounds” (Phytoquest Limited, priority 2011, dated 2017)
Entries after “also recorded” stand apart in the source; their conditions may differ.

Experiments:
α-D-glucosidase (Yeast) = target: T1, α-D-glucosidase (Yeast) (Saccharomyces cerevisiae, UniProt P53341); assay: Glycosidase assay, α-D-glucosidase (Yeast); type: biochemical; details: 0.2 mM, negative value = stabilisation or promotion of enzyme activity
T1 construct: purchased Sigma
Protocol: (§1) All enzymes and para-nitrophenyl substrates were purchased from Sigma, with the exception of beta-mannosidase which came from Megazyme. Enzymes were assayed at 27° C. in 0.1 M citric acid/0.2M disodium hydrogen phosphate buffers at the optimum pH for the enzyme. The incubation mixture consisted of 10 μl enzyme solution, 10 μl of 1 mg/ml aqueous solution of sample and 50 μl of the appropriate 5 mM para-nitrophenyl substrate made up in buffer at the optimum pH for the enzyme. […] Final absorbances were read at 405 nm using a Versamax microplate reader (Molecular Devices). Assays were carried out in triplicate, and the values given are means of the three replicates per assay.

[1] = system: α-D-glucosidase (Bacillus); assay: Glycosidase assay, α-D-glucosidase (Bacillus); type: biochemical; details: 0.2 mM
Protocol: as §1

β-D-glucosidase = assay: Glycosidase assay, β-D-glucosidase; type: biochemical; details: 0.2 mM
Protocol: as §1

α-D-galactosidase = assay: Glycosidase assay, α-D-galactosidase; type: biochemical; details: 0.2 mM; negative value = stabilisation or promotion
Protocol: as §1

β-D-galactosidase = assay: Glycosidase assay, β-D-galactosidase; type: biochemical; details: 0.2 mM
Protocol: as §1

α-D-mannosidase = assay: Glycosidase assay, α-D-mannosidase; type: biochemical; details: 0.2 mM; for percentage inhibition, α-D-mannosidase: negative value = stabilisation or promotion
Protocol: as §1

β-D-mannosidase = assay: Glycosidase assay, β-D-mannosidase; type: biochemical; details: 0.2 mM; negative value = stabilisation or promotion
Protocol: (§2) Enzymes were assayed at 27° C. in 0.1 M citric acid/0.2M disodium hydrogen phosphate buffers at the optimum pH for the enzyme. The incubation mixture consisted of 10 μl enzyme solution, 10 μl of 1 mg/ml aqueous solution of sample and 50 μl of the appropriate 5 mM para-nitrophenyl substrate made up in buffer at the optimum pH for the enzyme. […] Final absorbances were read at 405 nm using a Versamax microplate reader (Molecular Devices). Assays were carried out in triplicate, and the values given are means of the three replicates per assay.

[2] = system: N-acetyl-β-D-gluc (Bovine kidney); assay: Glycosidase assay, N-acetyl-β-D-gluc (Bovine kidney); type: biochemical; details: 0.2 mM; negative value = stabilisation or promotion
Protocol: as §1

[3] = system: N-acetyl-β-D-gluc (Jack bean); assay: Glycosidase assay, N-acetyl-β-D-gluc (Jack bean); type: biochemical; details: 0.2 mM; negative value = stabilisation or promotion
Protocol: as §1

glucosidases = assay: Glycosidase panel, summary in words for glucosidases; type: biochemical; details: 0.2 mM
Protocol: as §1

[4] = system: equine endometrial explant, Prostaglandin F2α (PGF2α) secretion; assay: In vitro equine endometrial explant culture, LPS-stimulated PGF2α secretion; type: cell-based, horse
Protocol: The efficacy of ido-BR1 as an anti-inflammatory agent in a model of mucosal inflammation was tested. The model utilised was previously optimised and established (D M Nash, E A. Lane, S Herath and I M Sheldon (2008) Endometrial Explant Culture for Characterizing Equine Endometritis. American Journal of Reproductive Immunology. 59: 105-117). The model is comprised of an in vitro equine endometrial explant tissue culture system. […]
Uterine tissue was collected from mares at an abattoir, the endometrial (mucosal) surface was dissected out, […] placed in culture as explants. […] The secretion of PGF2α is measured at 24 and 72 h after challenge with LPS in order to represent the innate and chronic immune response respectively.
Explants were treated with control (media alone) or, in order to determine whether ido-BR1 affected spontaneous PGF2α, 0.5, 25 or 100 μg/ml ido-BR1 alone. […] The secretion of PGF2α was measured at 24 and 72 h after treatments were applied. […]

β-glucuronidase = details: 0.2 mM
Protocol: as §1

α-D-glucosidase (Rice) = target: T2, α-D-glucosidase (Rice) (Oryza sativa subsp. japonica, UniProt Q653V7); assay: Glycosidase assay, α-D-glucosidase (Rice); type: biochemical; details: 0.2 mM
T2 construct: purchased Sigma
Protocol: as §2

α-L-fucosidase = assay: Glycosidase assay, α-L-fucosidase; type: biochemical; details: 0.2 mM
Protocol: as §1

Naringinase = assay: Glycosidase assay, Naringinase; type: biochemical; details: 0.2 mM
Protocol: as §2

[5] = system: N-acetyl-β-D-hexosaminidase; assay: Glycosidase assay, N-acetyl-β-D-hexosaminidase; type: biochemical; details: 0.2 mM; negative value = stabilisation or promotion
Protocol: as §2

Amyloglucosidase = target: T3, Amyloglucosidase (Aspergillus niger, UniProt P69328); assay: Glycosidase assay, Amyloglucosidase; type: biochemical; details: 0.2 mM
T3 construct: purchased Sigma
T3 sequence (P69328 25-640): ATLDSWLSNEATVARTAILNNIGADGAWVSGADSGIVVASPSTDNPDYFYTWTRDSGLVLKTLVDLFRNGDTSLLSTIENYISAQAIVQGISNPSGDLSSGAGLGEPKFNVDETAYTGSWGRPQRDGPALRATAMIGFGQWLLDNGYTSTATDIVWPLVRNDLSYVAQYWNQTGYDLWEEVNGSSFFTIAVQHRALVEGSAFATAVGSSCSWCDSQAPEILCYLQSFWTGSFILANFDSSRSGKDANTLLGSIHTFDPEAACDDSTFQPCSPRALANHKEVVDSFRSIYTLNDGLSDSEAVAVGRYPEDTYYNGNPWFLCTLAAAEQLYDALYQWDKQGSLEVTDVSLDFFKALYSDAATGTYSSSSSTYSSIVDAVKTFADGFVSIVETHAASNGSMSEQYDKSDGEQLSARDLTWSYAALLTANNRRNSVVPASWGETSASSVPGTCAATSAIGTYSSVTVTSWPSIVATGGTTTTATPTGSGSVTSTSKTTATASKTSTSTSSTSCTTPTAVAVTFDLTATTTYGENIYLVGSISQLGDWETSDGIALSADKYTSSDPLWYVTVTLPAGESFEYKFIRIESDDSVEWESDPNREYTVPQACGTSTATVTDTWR
Protocol: as §2

T1 sequence (P53341 whole entry): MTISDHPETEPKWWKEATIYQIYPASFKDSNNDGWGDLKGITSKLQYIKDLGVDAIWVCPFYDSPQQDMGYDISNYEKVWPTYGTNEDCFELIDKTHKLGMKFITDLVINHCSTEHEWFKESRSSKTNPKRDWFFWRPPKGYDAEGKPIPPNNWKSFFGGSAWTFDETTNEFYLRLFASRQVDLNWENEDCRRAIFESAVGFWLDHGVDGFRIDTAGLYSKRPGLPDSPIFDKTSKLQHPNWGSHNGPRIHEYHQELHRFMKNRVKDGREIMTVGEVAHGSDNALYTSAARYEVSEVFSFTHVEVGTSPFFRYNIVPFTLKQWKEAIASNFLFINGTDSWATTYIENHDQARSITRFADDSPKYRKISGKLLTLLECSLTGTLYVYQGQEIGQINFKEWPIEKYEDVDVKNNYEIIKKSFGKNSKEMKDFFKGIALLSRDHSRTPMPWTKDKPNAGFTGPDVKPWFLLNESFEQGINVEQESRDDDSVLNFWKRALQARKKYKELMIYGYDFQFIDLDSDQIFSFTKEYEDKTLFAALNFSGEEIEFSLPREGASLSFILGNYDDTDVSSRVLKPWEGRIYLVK
T2 sequence (Q653V7 34-885): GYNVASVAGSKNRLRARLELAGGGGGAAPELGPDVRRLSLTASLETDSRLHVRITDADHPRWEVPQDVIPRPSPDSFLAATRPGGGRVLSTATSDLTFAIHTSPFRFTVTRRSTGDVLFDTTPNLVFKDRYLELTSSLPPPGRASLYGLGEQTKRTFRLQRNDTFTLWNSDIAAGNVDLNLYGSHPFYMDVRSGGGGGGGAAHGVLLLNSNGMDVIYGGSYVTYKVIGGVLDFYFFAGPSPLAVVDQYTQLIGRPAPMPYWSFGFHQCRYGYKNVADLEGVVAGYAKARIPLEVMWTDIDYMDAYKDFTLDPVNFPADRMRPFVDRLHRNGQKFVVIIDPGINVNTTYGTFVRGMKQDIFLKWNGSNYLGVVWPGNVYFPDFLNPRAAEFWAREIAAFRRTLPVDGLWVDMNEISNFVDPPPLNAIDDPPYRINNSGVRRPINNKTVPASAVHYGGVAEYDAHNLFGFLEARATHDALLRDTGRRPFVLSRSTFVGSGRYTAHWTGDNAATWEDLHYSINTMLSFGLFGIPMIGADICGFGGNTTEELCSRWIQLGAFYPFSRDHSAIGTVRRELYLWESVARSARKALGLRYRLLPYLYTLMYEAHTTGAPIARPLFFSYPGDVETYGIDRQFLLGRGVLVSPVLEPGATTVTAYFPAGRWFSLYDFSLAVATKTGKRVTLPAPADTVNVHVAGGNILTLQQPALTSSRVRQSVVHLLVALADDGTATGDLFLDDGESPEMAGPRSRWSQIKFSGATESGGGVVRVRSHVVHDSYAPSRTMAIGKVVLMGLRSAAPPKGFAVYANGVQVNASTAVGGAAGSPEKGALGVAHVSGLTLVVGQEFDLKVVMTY

SMILES	percentage inhibition, α-D-glucosidase (Bacillus) [1] [%]	percentage inhibition, β-D-glucosidase (β-D-glucosidase) [%]	percentage inhibition, α-D-galactosidase (α-D-galactosidase) [%]	percentage inhibition, β-D-galactosidase (β-D-galactosidase) [%]	percentage inhibition, α-D-mannosidase (α-D-mannosidase) [%]	percentage inhibition, β-D-mannosidase (β-D-mannosidase) [%]	percentage inhibition, N-acetyl-β-D-gluc (Bovine kidney) [2] [%]	percentage inhibition, N-acetyl-β-D-gluc (Jack bean) [3] [%]	inhibition of glucosidases (in words) (glucosidases)	further results
O=C(O)[C@@H]1NC[C@H](O)[C@@H](O)[C@@H]1O [ido-BR1, (2R,3R,4R,5S)-3,4,5-trihydroxypiperidine-2-carboxylic acid]	26.4	6.1	−2.7	1.0	−28.4	−4.4	5.5	−4.5	very weakly inhibitory	inhibition at 200 µM (α-D-glucosidase (Yeast); read-out: percentage inhibition, α-D-glucosidase (Yeast)): 4.7%; effect on alpha-mannosidase activity (in words) (α-D-mannosidase): promote alpha-mannosidase activity slightly; PGF2α secretion by LPS-challenged explants versus control (abrogation of inflammation) ([4]; 3.0 μg/ml LPS with 0.5, 25 or 100 μg/ml ido-BR1, 24 h): not significantly different to the control; also recorded: abrogated inflammation in the explants; abrogation of LPS-stimulated PGF2α secretion ([4]; 3.0 μg/ml LPS with ido-BR1, 72 h): not significant; inhibition of glucuronidase (in words) (β-glucuronidase): not inhibitory; percentage inhibition, β-glucuronidase (β-glucuronidase): 2.5%
OC[C@H]1NC[C@H](O)[C@@H](O)[C@@H]1O [DNJ, reference compound]	99.5	63.7	−3.3	0.4	26.6	−19.0	−0.8	2.8	potent inhibition	percentage inhibition, α-D-glucosidase (Yeast) (α-D-glucosidase (Yeast)): 35.7%; percentage inhibition, α-D-glucosidase (Rice) (α-D-glucosidase (Rice)): 99.6%; percentage inhibition, α-L-fucosidase (α-L-fucosidase): 5.9%; percentage inhibition, Naringinase (Naringinase): 20.8%; percentage inhibition, N-acetyl-β-D-hexosaminidase [5]: −5.5%; percentage inhibition, Amyloglucosidase (Amyloglucosidase): 31.7%
